Measured values reported in publication PMC12817916, “A small-molecule HSP90 inhibitor, NVP-HSP990, alleviates rotavirus infection” (Journal of Virology, 2025).

Columns and labels:
Caco-2 cells = test: Cytotoxicity assay (CCK-8); format: cell-based, Human; conditions: Caco-2 cells, 24 h, CCK-8; read-out: CC50
Procedure: (§1) To evaluate the cytotoxicity of different HSP90 inhibitors in vitro, 10,000 MA104 cells, 30,000 Caco-2 cells, and 80,000 HT-29 cells in 100 µL complete DMEM medium were seeded in 96-well plates and cultured at 37°C and 5% CO2 for 24 h to reach about 100% confluence, and a cell-free control was also set. After removing the initial medium, 100 µL of complete DMEM medium containing the indicated concentrations of drugs was added to each well, and the plates were incubated at 37°C and 5% CO2. Twenty-four hours later, the drug-containing medium was replaced with 100 µL fresh complete DMEM medium plus 10 µL 5 mM CCK-8 reagent (Beyotime, China), and OD450 absorbance of each well was detected 3 h later using a microplate reader (Gene Company Limited, China). Relative cell viability rate = OD450 (drug-treated cells − cell-free control) / OD450 (0 µM drug-treated cells − cell-free control).
(§2) The 50% cytotoxic concentration (CC50) values were determined by nonlinear regression (curve fit) analysis in GraphPad Prism 9.0 (GraphPad Software). Dose-response data (drug concentrations as X-axis and normalized cell viability percentages as Y-axis) were fitted to a Dose-response Inhibition model ("[Inhibitor] vs. normalized response-Variable slope"). The curve was constrained to a bottom limit of 0% viability. The CC50 value was automatically calculated as the X-intercept at Y=50%. Model adequacy was validated using goodness-of-fit metrics (R²≥0.95), 95% confidence intervals, and residual distribution analysis. Final CC50 values were derived from three independent biological replicates and reported as mean ± SEM.

HT-29 cells = test: Cytotoxicity assay (CCK-8); format: cell-based, Human; conditions: HT-29 cells, 24 h, CCK-8; read-out: CC50
Procedure: as §1, §2

[1] = cited from earlier work
MA104 cells = test: Cytotoxicity assay (CCK-8); format: cell-based, Rhesus monkey; conditions: MA104 cells, 24 h, CCK-8; read-out: CC50
Procedure: as §1, §2

HSP90α = conditions: targets the N-terminal of HSP90α; cited from earlier work
RV SA11 strain = test: RV SA11 diarrhea model in suckling mice; format: in vivo, BALB/c suckling mice; conditions: for infectious RV particles and viral antigens in intestinal contents, transcription of RV VP6 in intestinal epithelial cells: compared to controls
Procedure: BALB/c mice were purchased from Gempharmatech Inc. (Suzhou, China) and housed under SPF conditions (22 ± 1°C, 12 h light/dark cycle). Suckling mice were obtained by mating male and female adult BALB/c mice (12- to 16-week-old). Only the 7-day-old BALB/c suckling mice with body weights ranging from 2.5 g to 4.5 g were selected for RV diarrhea models. For induction of RV diarrhea, 1 × 10^6 PFU of SA11 strain or 10 × DD50 of EDIM strain in 20 µL PBS was orally inoculated using a pipette tip to 7-day-old BALB/c suckling mice regardless of their sexes, as sex has no significant influence on RV diarrhea occurrence. We used a scoring system to evaluate fecal consistency and color as described with some modification ([27]): no stool or brown formed stool (1 point); brown soft stool (2 points); yellow soft stool (3 points); and yellow watery stool (4 points). Mice with scores of ≥2 meant diarrhea occurrence, while mice with scores of 1 meant no diarrhea. At the end of each experiment, all infected or drug-treated suckling mice were humanely euthanized via CO2 asphyxiation.
Seven-day-old BALB/c suckling mice meeting the weight criteria within each litter were randomly assigned to experimental groups. Each litter was allocated to ensure one to three suckling mice per experimental group (variations dependent on the total number of groups). Data from suckling mice assigned to the same group across multiple litters were aggregated to achieve a total sample size of n = 3–6 per experimental group. Then, the suckling mice were orally inoculated with 1 × 10^6 PFU of the SA11 strain or 10 × DD50 of the EDIM strain, or with an equal amount of PBS as mock infection. For SA11 infection, the suckling mice were orally treated once with indicated doses of drugs or with an equal volume of DMSO as control at 2 h p.i. For EDIM infection, the suckling mice were orally treated with 0.2 mg/kg/day NVP-HSP990, 30 mg/kg/day ribavirin, or an equal amount of DMSO as control from 2 days post-infection (d p.i.) to indicated time points. Diarrhea scores and body weight were monitored from day 0 to day 7 post-infection in the SA11 infection model, and from day 0 to day 9 post-diarrhea occurrence (2–11 d p.i.) in the EDIM infection model. Blinding was applied throughout data collection and analysis.
The RV-infected suckling mice were sacrificed by CO2 asphyxiation at the indicated times, and small intestines (including duodenum, jejunum, and ileum) or colon was homogenized in 0.3 mL DMEM, centrifuged at 12,000 × g for 5 min at 4°C, and the supernatant was collected. Virus contents in the supernatant were titrated with PFA as described above. Viral antigens in the supernatant were detected with enzyme-linked immunosorbent assay (ELISA) kits for RV (CUSABIO, China) following the manufacturer’s instructions. For qPCR analysis of RV protein expression, the intestines were longitudinally split and washed in 1 mL DMEM by shaking for 30 s. Then, the tissues were cut into 0.5 cm segments, incubated in Hank’s buffer containing 2.5 mM EDTA-Na2 and 1 mM dithiothreitol (Sangon Biotech, China) at 37°C with rotation at 200 rpm for 30 min, filtered with a 70 µm strainer. Then the epithelial cells were pelleted by centrifugation at 500 × g for 5 min, purified with 20% Percoll (Cytiva, Sweden), and lysed in Trizol for RNA extraction and further qPCR analysis.
The jejunum and ileum of suckling mice were fixed in 4% paraformaldehyde for 24 h, washed with PBS twice, and then subjected to paraffin embedding and slicing at 5 µm thickness. The sections were stained with hematoxylin and eosin (Beyotime, China) and observed with an Olympus BX51 microscope, and the data were processed by CaseViewer 2.4 software. For immunohistochemistry analysis, the fixed tissues were dehydrated in 30% sucrose, embedded in Optimal Cutting Temperature compound, frozen with liquid nitrogen, and cryosliced at 10 µm thickness. […]

[2] = 1 mg/kg oral, once, 0 to 7 days post-infection
[3] = oral, once at 2 h p.i., 24 h p.i., 1 × 10^6 PFU SA11

## COc1cccc(-c2cc(F)ccc2[C@H]2Cc3nc(N)nc(C)c3C(=O)N2)n1 [NVP-HSP990]
Caco-2 cells
  CC50: > 100 µM
HT-29 cells
  CC50: > 100 µM
[1]
  brain penetration: brain-penetrating
  oral bioavailability: orally bioavailable
MA104 cells
  CC50: > 100 µM
HSP90α
  IC50: 0.0006 µM
RV SA11 strain; [2]
  body growth of RV-infected suckling mice: did not hinder
  diarrhea of RV-infected suckling mice: significantly alleviated
RV SA11 strain; SA11-infected mice, 1 mg/kg oral, 16 h p.i., hematoxylin/eosin
  RV-induced foamy degeneration in the ileal epithelium: markedly attenuated
RV SA11 strain; duodenum, 1 mg/kg oral, 16 h p.i.
  infectious RV particles and viral antigens in intestinal contents, transcription of RV VP6 in intestinal epithelial cells: no significant differences
RV SA11 strain; jejunum and ileum, 1 mg/kg oral, 16 h p.i.
  infectious RV particles and viral antigens in intestinal contents, transcription of RV VP6 in intestinal epithelial cells: remarkably reduced
RV SA11 strain; mock-infected mice, NVP-HSP990 treatment alone, 1 mg/kg oral, hematoxylin/eosin
  pathological changes in the ileum: no appreciable pathological changes
RV SA11 strain; [3]
  ED50 for RV diarrhea occurrence: 0.1423 mg/kg
  ED50 for diarrhea score reduction: 0.1355 mg/kg
